Data taken from article PMC6272251, “Two New Phenolic Glucosides from Lagerstroemia speciosa” (Molecules, 2015).

Tests used:
RAW264.7 cells = test: Cell viability test (MTT assay); format: cell-based; conditions: Mus musculus, RAW 264.7 cells, compounds 25 to 150 μM, 24 h
Description: RAW264.7 cells were plated at 1 × 10^6 cells/mL and incubated for 18 h followed by the addition of Compounds 1–12 to the cells (25 to 150 μM), and the cells were incubated for 24 h. The cytotoxicity was evaluated by an MTT (3-(4,5-dimethylthiazol-2-yl)-2,5-diphenyltetrazolium bromide) assay. The […] of MTT solution (10 mg/mL in phosphate buffered saline, pH 7.4) were added to the cells 3 h prior to the end of the culture period. The incubation was terminated by the addition of 15% sodium dodecyl sulfate to each well to solubilize the formazan. The absorbance was measured by a microplate reader at 570 nm (OD570-630).

[1] = tested on: nitric oxide production in lipopolysaccharide-treated RAW264.7 cells; test: Inhibition of LPS-induced NO production in RAW264.7 cells (Griess reagent); format: cell-based; conditions: Mus musculus, RAW 264.7 cells, compounds 30 min then LPS 1.0 μg/mL for 24 h
Description: RAW264.7 cells were plated at 1 × 10^6 cells/mL and incubated for 18 h. After incubation, the cells were treated with Compounds 1–12 for 30 min and then continuously incubated with LPS (1.0 μg/mL) for 24 h. The inhibitory effects of the isolated compounds on NO production were evaluated by using the Griess reagent and an EIA kit to determine the NO levels, as described previously.

## O=C(C=Cc1ccc(O)c(O)c1)OCC1OC(OCc2ccccc2)C(O)C(O)C1O [Compound 1, 1-O-benzyl-6-O-E-caffeoyl-β-D-glucopyranoside]
RAW264.7 cells
  IC50: > 100 µM
[1]
  IC50: 81.8 ± 1.3 µM

## COc1cc(C(O)C(O)CO)ccc1OC1OC(COC(=O)C=Cc2ccc(O)c(O)c2)C(O)C(O)C1O [Compound 2, 1-O-(7S,8R)-guaiacylglycerol-(6-O-E-caffeoyl)-β-D-glucopyranoside]
RAW264.7 cells
  IC50: 87.7 ± 3.5 µM
[1]
  IC50: 71.1 ± 1.9 µM

## O=c1c(O[C@@H]2O[C@H](CO)[C@H](O)[C@H](O)[C@H]2O)c(-c2ccc(O)c(O)c2)oc2cc(O)cc(O)c12 [Compound 3, quercetin-3-O-β-D-galactopyranoside]
RAW264.7 cells
  IC50: > 100 µM
[1]
  IC50: 81.9 ± 1.9 µM

## O=C(C=Cc1ccc(O)c(O)c1)OCC1OC(Oc2c(-c3ccc(O)c(O)c3)oc3cc(O)cc(O)c3c2=O)C(O)C(O)C1O [Compound 4, quercetin-3-O-(6''-O-E-caffeoyl)-β-D-galactopyranoside]
RAW264.7 cells
  IC50: > 100 µM
[1]
  IC50: 83.3 ± 0.9 µM

## O=C(C=Cc1ccc(O)c(O)c1)OCC1OC(OC(=O)C=Cc2ccc(O)c(O)c2)C(O)C(O)C1O [Compound 5, 1,6-di-O-E-caffeoyl-β-D-glucopyranoside]
RAW264.7 cells
  IC50: > 100 µM
[1]
  IC50: 69.5 ± 1.4 µM

## COc1cc(CCCO)cc(OC)c1O[C@@H]1O[C@H](CO)[C@@H](O)[C@H](O)[C@H]1O [Compound 7, dihydrosyringin]
RAW264.7 cells
  IC50: > 100 µM
[1]
  IC50: 76.2 ± 0.6 µM

## O=C(C=Cc1ccc(O)c(O)c1)OC1OC(CO)C(O)C(O)C1O [Compound 8, 1-O-E-caffeoyl-β-D-glucopyranoside]
RAW264.7 cells
  IC50: 84.8 ± 5 µM
[1]
  IC50: 70.7 ± 1.2 µM

## COc1c(O)cc2c(=O)oc3c(O)c(O)cc4c(=O)oc1c2c34 [Compound 10, 3-O-methylellagic acid]
RAW264.7 cells
  IC50: > 100 µM
[1]
  IC50: 78 ± 2.3 µM

## O=C(/C=C/c1ccc(O)c(O)c1)O[C@@H]1C[C@](O)(C(=O)O)C[C@@H](O)[C@H]1O [Compound 11, chlorogenic acid]
RAW264.7 cells
  IC50: > 100 µM
[1]
  IC50: 81.2 ± 0.7 µM
